Measured values: US5919896A, “PF4A receptor” (Genentech, Inc., priority 1997, dated 1999)

Columns and labels:
[1] = system: receptor of FIG. 4 (8rr.20.15); assay: Response of recombinant cells bearing the FIG. 4 receptor to PF4 superfamily ligands; assay type: cell-based, human; conditions: preliminary experiments
[2] = system: receptor of FIG. 5 (8rr.9); assay: Response of recombinant cells bearing the FIG. 5 receptor to PF4 superfamily ligands; assay type: cell-based, human; conditions: preliminary experiments
IL8R-A = conditions: Holmes et al., cited from earlier work
[3] = system: IL-8 receptor (clone pRK5B.il8r1.1) on transfected COS cells; assay: 125I-IL-8 binding competition on transfected COS cells; design: species or system human; conditions: COS cells transfected with clone pRK5B.il8r1.1
Method: Samanta et al., supra, Besemer et al., supra, Grob et al., supra.
Binding competition was performed with electroporated COS-7 cells after 1 day of expression in 6-well dishes (about 175,000 cells/dish). […] Wells were then washed, the cells harvested with trypsin, and counted. […] Neutrophil binding was performed as described (Pacholczyk et al., supra) but for 2 hr at 4° C.

human fMLP receptor = assay: Flow cytometry intracellular Ca++ response of 293 cells transfected with fMLP receptor; assay type: cell-based; conditions: 293 cells transfected with human fMLP receptor
Method: (§1) After two days, the cells were loaded with 2 μM indo-1 acetoxymethyl ester in RPMI medium (Sigma) for 30 min at 37° C. Intracellular Ca^++ was measured with a Coulter 753 flow cytometer using the ratio of 405 and 525 nm fluorescence. Grynkiewicz et al., J. Biol. Chem., 260: 3440-3450 (1985).
(§2) Oppenheim et al., supra; Korchak et al., J. Biol Chem., 259: 4076-4082 (1984). […] Oppenheim et al., supra.

[4] = system: human IL-8 receptor (clone pRK5B.il8r1.1); assay: Flow cytometry intracellular Ca++ response of 293 cells transfected with IL-8 receptor; assay type: cell-based
Method: as §1
(§3) No response is found to fMLP. […] Oppenheim et al., supra.

expressed IL-8 receptor = system: expressed IL-8 receptor
Text: as §2

[5] = system: Murphy and Tiffany receptor; assay: Ligand affinity of the Murphy and Tiffany receptor (studies herein); assay type: binding, human
Text: Murphy and Tiffany, supra, describe a receptor having a high degree of homology to the receptor of FIG. 2. […] This could be readily accomplished by routine screening methods.

[6] = system: expressed human fMLP receptor; assay: 125I-IL-8 binding to the expressed human fMLP receptor
Text: as §3

IL8R-B = conditions: background, Murphy and Tiffany; read-out: affinity of IL8R-B for ligand; cited from earlier work
[7] = system: receptor of FIG. 2 (IL-8 receptor); assay: MGSA binding to the receptor of FIG. 2; design: species or system human
Text: Murphy and Tiffany, supra, describe a receptor having a high degree of homology to the receptor of FIG. 2. […] This could be readily accomplished by routine screening methods. […] On the other hand, antibodies that can discriminate between the FIG. 2 and Murphy and Tiffany receptors and bind only to one or the other are useful in diagnosis. The receptor of FIG. 2 binds MGSA poorly, in contrast to the Murphy and Tiffany receptor.

human neutrophils = assay: Inhibition of 125I-IL-8 binding to human neutrophils; conditions: 475 pM of MGSA, no antibody
Text: Cells were washed twice in the HBSS medium and resuspended to be 1×10^6 cells/ml.

| Molecule | response of recombinant cells bearing the receptor [1] | response of recombinant cells bearing the receptor [2] | recognition of ligand by IL8R-A (IL8R-A) | also measured |
| --- | --- | --- | --- | --- |
| MCP1: PF4 superfamily ligand tested on cells bearing the FIG. 4 and 5 receptors | do not respond | do not respond |  |  |
| MCAF: macrophage chemotactic and activating factor, C-C peptide |  |  | does not recognize |  |
| TNF-α |  |  | does not recognize |  |
| CSCC[C@H](NC=O)C(=O)N[C@@H](CC(C)C)C(=O)N[C@@H](Cc1ccccc1)C(=O)O [fMLP, f-Met-Leu-Phe, reference compound] |  |  | does not recognize | competition of 125I-IL-8 binding [3]: no competition; intracellular Ca++ response (human fMLP receptor): respond; intracellular Ca++ response [4]: No response; binding of 3H-fMLP to the expressed IL-8 receptor (expressed IL-8 receptor): failed to detect any binding |
| CCCCC/C=C\C[C@@H](O)/C=C/C=C/C=C\[C@@H](O)CCCC(=O)O [LTB4, reference compound] |  |  | does not recognize |  |
| IL-8: Purified human 72 amino acid IL-8 made in E. coli | do not respond | do not respond |  | intracellular Ca++ response (human fMLP receptor): not; Kd (IL8R-A; background, read-out: affinity of IL8R-A for ligand): 2 nM; IL-8 affinity compared with the receptor of FIG. 2 [5]: as high or higher; intracellular Ca++ response [4]: clear transient increase; binding of 125I-IL-8 to the expressed human fMLP receptor [6]: failed to detect any binding; Kd (IL8R-B): 2 nM |
| MGSA: NAP-3 (melanoma growth-stimulating activity [MGSA]/gro), C-X-C member of the PF4 superfamily | do not respond | do not respond | does recognize | binding of MGSA [7]: poorly; Kd ([5]; read-out: affinity for MGSA): 1 to 10 nM; inhibition of IL-8 binding to human neutrophils by MGSA (human neutrophils): approximately 50%; Kd (IL8R-B): 2 nM |
| Rantes: C-C peptide of the platelet factor 4 superfamily (protein) SPYSSDTTPCCFAYIARPLPRAHIKEYFYTSGKCSNPAVVFVTRKNRQVCANPEKKWVREYINSLEMS | do not respond | do not respond |  |  |
| C5α: neutrophil chemoattractant C5a (protein, UniProt P01031 678-751, looked up, C5a anaphylatoxin, neutrophil chemoattractant C5a) C5a anaphylatoxin: TLQKKIEEIAAKYKHSVVKKCCYDGACVNNDETCEQRAARISLGPRCIKAFTECCVVASQLRANISHKDMQLGR |  |  | does not recognize |  |
| NAP-2: neutrophil activating protein-2, C-X-C family member (protein, UniProt P02775 59-128, looked up, Neutrophil-activating peptide 2) Neutrophil-activating peptide …: AELRCMCIKTTSGIHPKNIQSLEVIGKGTHCNQVEVIATLKDGRKICLDPDAPRIKKIVQKKLAGDESAD |  |  | does recognize |  |
